Tests used:
[1] = Antioxidant activity assessed as SIN1-induced ONOO scavenging activity at 1 uM incubated for 1250 secs by chemiluminescence method relative to control; type: functional; details: time 1250.0 sec
[2] = Antioxidant activity assessed as SIN1-induced ONOO scavenging activity at 1 mM incubated for 1250 secs by chemiluminescence method relative to control; type: functional; details: time 1250.0 sec
Rattus norvegicus = experiment: Neuroprotective activity in Sprague-Dawley rat model of permanent middle cerebral artery occlusion assessed as infarction volume at 80 mg/kg, ip administered 2 hr post MCAO induction and measured 14 hrs post MCAO challenge by TTC staining based assay (reference value: 27.5%); type: functional; details: time 12 hrs
[3] = Drug concentration in Sprague-Dawley rat brain at 80 mg/kg, iv measured after 5 mins by reverse-phase HPLC method; type: ADME, organism-based; details: read-out: Ct

Cc1nc(C)c(/C=[N+](\[O-])C(C)(C)C)nc1C
Activity [1]: 35.3%
Activity [2]: 94.7%
Activity (Rattus norvegicus): 20.3%
concentration at 5 min [3]: 650 µM

Reference: ChEMBL document CHEMBL4680281, “Recent Advances on Nitrones Design for Stroke Treatment” (J Med Chem, 2020)
